Reference: patent publication US7094899B2, “Vitreous form of known bradykinin antagonist” (Astellas Pharma Inc., priority 1998, dated 2006)
One block for each compound: values may come before it.

How the values were obtained:
[1] = Solubility test (JP XIII dissolution test, paddle method); assay type: physicochemical; settings: 900 ml distilled water, paddle 50 rpm; compared with crystal types A, B, C and mixture A+C of FR173657 hydrate (FIG. 6)
Description: A solubility test was performed in conformity with the Japanese Pharmacopoeia(JP) XIII dissolution test, paddle method. As the test solution, 900 ml of distilled water was used. The paddle speed was set to 50 rpm. The vitreous form of FR173657 ([…]) was added to the test solution and 10 ml aliquots of the test solution were taken as samples in each measurement. Each sample was filtered through a 0.45 μm filter and analyzed by high-performance liquid chromatography.
As a control, crystal type A, crystal type B, crystal type C and a mixture of crystal types A and C of FR173657 hydrate were used.

[2] = Stability test of the vitreous form milled mechanically; assay type: physicochemical
[3] = background art statement; cited from earlier work
[4] = 25° C. Relative humidity: 60%, 3 Months
[5] = 30° C. Relative humidity: 75%, 3 Months
[6] = 40° C. Relative humidity: 75%, 3 Months

Solubility [1]: higher solubility
Appearance [2, 4]: Pale
Form DSC [2, 4]: Vitreous
Form Powder X-ray [2, 4]: Vitreous
Residual (%) [2, 4]: 102.1%
Appearance [2, 5]: Pale
Form DSC [2, 5]: Vitreous
Form Powder X-ray [2, 5]: Vitreous
Residual (%) [2, 5]: 102.1%
Appearance [2, 6]: Pale
Form DSC [2, 6]: Vitreous
Form Powder X-ray [2, 6]: Vitreous
Residual (%) [2, 6]: 101.2%
Appearance ([2]; 40° C., 3 Months): Pale
Form DSC ([2]; 40° C., 3 Months): Vitreous
Form Powder X-ray ([2]; 40° C., 3 Months): Vitreous
Residual (%) ([2]; 40° C., 3 Months): 100.8%
Appearance ([2]; 50° C., 3 Months): Pale
Form DSC ([2]; 50° C., 3 Months): Vitreous
Form Powder X-ray ([2]; 50° C., 3 Months): Vitreous
Residual (%) ([2]; 50° C., 3 Months): 101.0%
Appearance ([2]; Initial): Pale
Form DSC ([2]; Initial): Vitreous
Form Powder X-ray ([2]; Initial): Vitreous
Residual (%) ([2]; Initial): 100.0%
SMILES: CC(=O)Nc1ccc(/C=C/C(=O)NCC(=O)N(C)c2ccc(Cl)c(COc3cccc4ccc(C)nc34)c2Cl)cn1 [vitreous form of FR173657, 8-[3-[N-[(E)-3-(6-acetamidopyridin-3-yl)acryloylglycyl]-N-methylamino]-2,6-dichlorobenzyloxy]-2-methylquinoline]
Stability (crystallization / decomposition) ([2]; under heat, in moisture, through physical treatment, long-term storage): neither crystallizes nor decomposes at all

SMILES: CC(=O)Nc1ccc(/C=C/C(=O)NCC(=O)N(C)c2ccc(Cl)c(COc3cccc4ccc(C)nc34)c2Cl)cn1 [amorphous form, 8-[3-[N-[(E)-3-(6-acetamidopyridin-3-yl)acryloylglycyl]-N-methylamino]-2,6-dichlorobenzyloxy]-2-methylquinoline]
Solid stability [3]: poor
